Test results published in ChEMBL document CHEMBL1125124, “Tertiary 2-haloethylamine derivatives of the muscarinic agent McN-A-343, [4-[[N-(3-chlorophenyl)carbamoyl]oxy]-2-butynyl]trimethylammonium chloride” (J Med Chem, 1990).
Calls of active or inactive are those of the source. The calls are words filed in the database; no cut-off is given here.

Columns and labels:
[1] = Lethal dose was determined in male Swiss-Webster mice by intravenous injection using up-and-down method; type: toxicity, organism-based; settings: mouse, in vivo
[2] = Rate constant (cyclization rate) in CD3CN-deuterated phosphate buffer at pH 7.4; type: ADME
[3] = Half life was determined; type: ADME
[4] = tested on: Mus musculus; assay: Peripheral muscarinic effect was evaluated in mice by intravenous injection; No visible tremors or salivation observed; type: functional, organism-based

| Structure (SMILES) | LD50 [1] | K1 [2] | half-life [3] | K2 [2] | Activity [4] |
| --- | --- | --- | --- | --- | --- |
| CN(CC#CCOC(=O)Nc1cccc(Cl)c1)CCBr | 57.2 µmol/kg | 0.27 min⁻¹ |  |  |  |
| CN(CC#CCOC(=O)Nc1cccc(Cl)c1)CCCl | 166 µmol/kg | 0.0089 min⁻¹ | 1.87 h | 0.099 min⁻¹ |  |
| C[N+](C)(C)CC#CCOC(=O)Nc1cccc(Cl)c1.[Cl-] | 3.7 µmol/kg |  |  |  | inactive |
